Columns and labels:
[1] = tested on: crabgrass, large; test: Test A preemergence; format: in vivo, Digitaria sanguinalis; conditions: preemergence; for Crabgrass, Large plant response rating (0 to 100 scale): 125 g ai/ha, visual injury approx. 10 days after treatment; for Crabgrass, Large plant response rating: 500 g ai/ha, visual injury after approx. 10 days, 0 to 100 scale (0 no effect, 100 complete control)
Procedure, shortened: (§1)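 Seeds were sown in a loam soil–sand blend and given a directed soil spray preemergence; postemergence plants at 2–10 cm, one- to two-leaf stage, were sprayed with compound in non-phytotoxic solvent with surfactant. After about 10 days in a greenhouse, injury was visually rated against untreated controls (0 = no effect, 100 = complete control).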

[2] = tested on: morningglory; test: Test A preemergence; format: in vivo, Ipomoea spp.; conditions: preemergence; for Morningglory plant response rating (0 to 100 scale): 125 g ai/ha, visual injury approx. 10 days after treatment; for Morningglory plant response rating: 500 g ai/ha, visual injury after approx. 10 days, 0 to 100 scale (0 no effect, 100 complete control)
Procedure, shortened: as §1

[3] = tested on: pigweed; test: Test A preemergence; format: in vivo, Amaranthus retroflexus; conditions: preemergence; for Pigweed plant response rating (0 to 100 scale): 125 g ai/ha, visual injury approx. 10 days after treatment; for Pigweed plant response rating: 500 g ai/ha, visual injury after approx. 10 days, 0 to 100 scale (0 no effect, 100 complete control)
Procedure, shortened: as §1

[4] = tested on: morningglory; test: Test A postemergence; format: in vivo, Ipomoea spp.; conditions: Postemergence
Procedure, shortened: as §1

[5] = tested on: pigweed; test: Test A postemergence; format: in vivo, Amaranthus retroflexus; conditions: Postemergence
Procedure, shortened: as §1

[6] = tested on: wheat; test: Test A postemergence; format: in vivo, Triticum aestivum; conditions: Postemergence
Procedure, shortened: as §1

[7] = tested on: corn; test: Test A postemergence; format: in vivo, Zea mays
Procedure, shortened: as §1

[8] = tested on: rice; test: Test B flood; format: in vivo, Oryza sativa; conditions: 250 g ai/ha, visual rating on 0 to 100 scale (0 no effect, 100 complete control), 13 to 15 days
Procedure, shortened: (§2)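 Flooded-pot test: compound dosed into 3 cm of standing water above soil when plants had two leaves. Visual control ratings (0–100) versus untreated plants after 13–15 d.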

[9] = tested on: ducksalad; test: Test B flood; format: in vivo, Heteranthera limosa; conditions: 250 g ai/ha, visual rating on 0 to 100 scale (0 no effect, 100 complete control), 13 to 15 days
Procedure, shortened: as §2

[10] = tested on: blackgrass; test: Test C preemergence; format: in vivo, Alopecurus myosuroides; conditions: preemergence; for Plant response rating, Blackgrass: 125 g ai/ha, scale 0 to 100, 0 = no effect, 100 = complete control
Procedure, shortened: (§3)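 Postemergence values come from plants sprayed at the 1- to 4-leaf stage (2–18 cm) in peat moss–vermiculite medium; preemergence values from seeds treated in a loam–sand blend. Both evaluated visually against controls after 13–15 greenhouse days, scale 0–100.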

[11] = tested on: ryegrass, Italian; test: Test C preemergence; format: in vivo, Lolium multiflorum; conditions: preemergence; for Plant response rating, Ryegrass, Italian: 125 g ai/ha, scale 0 to 100, 0 = no effect, 100 = complete control
Procedure, shortened: as §3

[12] = tested on: corn; test: Test C preemergence; format: in vivo, Zea mays; conditions: preemergence; for Plant response rating, Corn: 125 g ai/ha, scale 0 to 100, 0 = no effect, 100 = complete control
Procedure, shortened: as §3

[13] = tested on: foxtail, giant; test: Test C preemergence; format: in vivo, Setaria faberii; conditions: preemergence; for Plant response rating, Foxtail, Giant: 125 g ai/ha, scale 0 to 100, 0 = no effect, 100 = complete control
Procedure, shortened: as §3

[14] = tested on: ragweed; test: Test C preemergence; format: in vivo, Ambrosia elation; conditions: preemergence; for Plant response rating, Ragweed: 125 g ai/ha, scale 0 to 100, 0 = no effect, 100 = complete control
Procedure, shortened: as §3

[15] = tested on: waterhemp; test: Test C preemergence; format: in vivo, Amaranthus rudis; conditions: preemergence; for Plant response rating, Waterhemp: 125 g ai/ha, scale 0 to 100, 0 = no effect, 100 = complete control
Procedure, shortened: as §3

[16] = 125 g ai/ha, 0 to 100 scale, 0 no effect, 100 complete control
[17] = 500 g ai/ha, 0 to 100 scale (0 no effect, 100 complete control)
[18] = Postemergence, 500 g ai/ha, 0 to 100 scale (0 no effect, 100 complete control)
[19] = postemergence, 125 g ai/ha, about 10 days, visual rating on 0 to 100 scale (0 no effect, 100 complete control)
[20] = 31 g ai/ha, visual rating, scale 0 to 100 (0 no effect, 100 complete control), 13 to 15 days
[21] = 62 g ai/ha, scale 0 to 100 (0 no effect, 100 complete control), 13 to 15 days
[22] = 250 g ai/ha, scale 0 to 100, 0 is no effect, 100 is complete control

## CCNC(=O)c1cc(CC)n(Cc2ccnc(C(F)(F)F)c2)n1 [Compound 196]
[1]
  Crabgrass, Large plant response rating (0 to 100 scale): 100
  Crabgrass, Large plant response rating: 100
[2]
  Morningglory plant response rating (0 to 100 scale): 100
  Morningglory plant response rating: 100
[3]
  Pigweed plant response rating (0 to 100 scale): 100
  Pigweed plant response rating: 100
[4]; [16]
  Morningglory plant response rating: 90
[4]; [17]
  Morningglory plant response rating: 100
[5]; [16]
  Pigweed plant response rating: 100
[5]; [17]
  Pigweed plant response rating: 100
[6]; [16]
  Wheat plant response rating: 40
[6]; [17]
  Wheat plant response rating: 90
[7]; [18]
  Corn plant response rating: 90
[7]; [19]
  Corn plant response rating: 80
[8]
  Plant response rating, Rice: 20
[9]
  Plant response rating, Ducksalad: 80
[10]; [20]
  Blackgrass plant response rating: 85
[10]; [21]
  Blackgrass plant response rating: 90
[10]; 13 to 15 days
  Plant response rating, Blackgrass: 90
[10]; [22]
  Blackgrass plant response rating: 90
[11]; [20]
  Ryegrass, Italian plant response rating: 30
[11]; [21]
  Ryegrass, Italian plant response rating: 85
[11]; 13 to 15 days
  Plant response rating, Ryegrass, Italian: 90
[11]; [22]
  Ryegrass, Italian plant response rating: 90
[12]; [20]
  Corn plant response rating: 5
[12]; [21]
  Corn plant response rating: 5
[12]; 13 to 15 days
  Plant response rating, Corn: 65
[12]; [22]
  Corn plant response rating: 98
[13]; [20]
  Foxtail, Giant plant response rating: 98
[13]; [21]
  Foxtail, Giant plant response rating: 100
[13]; 13 to 15 days
  Plant response rating, Foxtail, Giant: 100
[13]; [22]
  Foxtail, Giant plant response rating: 100
[14]; [20]
  Ragweed plant response rating: 85
[14]; [21]
  Ragweed plant response rating: 90
[14]; 13 to 15 days
  Plant response rating, Ragweed: 98
[14]; [22]
  Ragweed plant response rating: 98
[15]; [20]
  Waterhemp plant response rating: 100
[15]; [21]
  Waterhemp plant response rating: 100
[15]; 13 to 15 days
  Plant response rating, Waterhemp: 100
[15]; [22]
  Waterhemp plant response rating: 100

## Cc1cc(C(=O)NC(C)C)nn1Cc1ccnc(C(F)(F)F)c1 [Compound 197]
[1]
  Crabgrass, Large plant response rating (0 to 100 scale): 100
  Crabgrass, Large plant response rating: 100
[2]
  Morningglory plant response rating (0 to 100 scale): 100
  Morningglory plant response rating: 100
[3]
  Pigweed plant response rating (0 to 100 scale): 100
  Pigweed plant response rating: 100
[4]; [16]
  Morningglory plant response rating: 80
[4]; [17]
  Morningglory plant response rating: 100
[5]; [16]
  Pigweed plant response rating: 100
[5]; [17]
  Pigweed plant response rating: 100
[6]; [16]
  Wheat plant response rating: 0
[6]; [17]
  Wheat plant response rating: 60
[7]; [18]
  Corn plant response rating: 90
[7]; [19]
  Corn plant response rating: 30
[8]
  Plant response rating, Rice: 10
[9]
  Plant response rating, Ducksalad: 95
[10]; [20]
  Blackgrass plant response rating: 0
[10]; [21]
  Blackgrass plant response rating: 85
[10]; 13 to 15 days
  Plant response rating, Blackgrass: 90
[10]; [22]
  Blackgrass plant response rating: 90
[11]; [20]
  Ryegrass, Italian plant response rating: 15
[11]; [21]
  Ryegrass, Italian plant response rating: 35
[11]; 13 to 15 days
  Plant response rating, Ryegrass, Italian: 85
[11]; [22]
  Ryegrass, Italian plant response rating: 90
[12]; [20]
  Corn plant response rating: 5
[12]; [21]
  Corn plant response rating: 5
[12]; 13 to 15 days
  Plant response rating, Corn: 45
[12]; [22]
  Corn plant response rating: 95
[13]; [20]
  Foxtail, Giant plant response rating: 65
[13]; [21]
  Foxtail, Giant plant response rating: 98
[13]; 13 to 15 days
  Plant response rating, Foxtail, Giant: 100
[13]; [22]
  Foxtail, Giant plant response rating: 100
[14]; [20]
  Ragweed plant response rating: 60
[14]; [21]
  Ragweed plant response rating: 85
[14]; 13 to 15 days
  Plant response rating, Ragweed: 95
[14]; [22]
  Ragweed plant response rating: 98
[15]; [20]
  Waterhemp plant response rating: 100
[15]; [21]
  Waterhemp plant response rating: 100
[15]; 13 to 15 days
  Plant response rating, Waterhemp: 100
[15]; [22]
  Waterhemp plant response rating: 100

## CCCNC(=O)c1cc(CCC)n(Cc2cc(C(F)(F)F)nn2C)n1 [Compound 198]
[1]
  Crabgrass, Large plant response rating (0 to 100 scale): 100
  Crabgrass, Large plant response rating: 100
[2]
  Morningglory plant response rating (0 to 100 scale): 100
  Morningglory plant response rating: 100
[3]
  Pigweed plant response rating (0 to 100 scale): 100
  Pigweed plant response rating: 100
[4]; [16]
  Morningglory plant response rating: 80
[4]; [17]
  Morningglory plant response rating: 100
[5]; [16]
  Pigweed plant response rating: 100
[5]; [17]
  Pigweed plant response rating: 100
[6]; [16]
  Wheat plant response rating: 60
[6]; [17]
  Wheat plant response rating: 90
[7]; [18]
  Corn plant response rating: 90
[7]; [19]
  Corn plant response rating: 90
[8]
  Plant response rating, Rice: 60
[9]
  Plant response rating, Ducksalad: 100
[10]; [20]
  Blackgrass plant response rating: 85
[10]; [21]
  Blackgrass plant response rating: 90
[10]; 13 to 15 days
  Plant response rating, Blackgrass: 90
[10]; [22]
  Blackgrass plant response rating: 90
[11]; [20]
  Ryegrass, Italian plant response rating: 25
[11]; [21]
  Ryegrass, Italian plant response rating: 70
[11]; 13 to 15 days
  Plant response rating, Ryegrass, Italian: 90
[11]; [22]
  Ryegrass, Italian plant response rating: 90
[12]; [20]
  Corn plant response rating: 5
[12]; [21]
  Corn plant response rating: 55
[12]; 13 to 15 days
  Plant response rating, Corn: 85
[12]; [22]
  Corn plant response rating: 98
[13]; [20]
  Foxtail, Giant plant response rating: 98
[13]; [21]
  Foxtail, Giant plant response rating: 100
[13]; 13 to 15 days
  Plant response rating, Foxtail, Giant: 100
[13]; [22]
  Foxtail, Giant plant response rating: 100
[14]; [20]
  Ragweed plant response rating: 60
[14]; [21]
  Ragweed plant response rating: 85
[14]; 13 to 15 days
  Plant response rating, Ragweed: 98
[14]; [22]
  Ragweed plant response rating: 100
[15]; [20]
  Waterhemp plant response rating: 98
[15]; [21]
  Waterhemp plant response rating: 98
[15]; 13 to 15 days
  Plant response rating, Waterhemp: 100
[15]; [22]
  Waterhemp plant response rating: 100

Reference: US20150105252A1, “SUBSTITUTED PYRAZOLES AS HERBICIDES” (E I DU PONT DE NEMOURS AND COMPANY, priority 2013, published 2015)
